Test results as given in ChEMBL document CHEMBL4052810, “Synthesis and evaluation of vitamin D3 analogues with C-11 modifications as inhibitors of Hedgehog signaling” (Bioorg Med Chem Lett, 2017).

How the values were obtained:
Mus musculus [1] = species on record: Mus musculus; assay: Inhibition of Hedgehog signaling pathway in mouse C3H10T1/2 cells assessed as reduction in oxysterol-induced Gli1 mRNA expression at 5 uM after 24 hrs by q-PCR analysis relative to oxysterol alone; assay type: cell-based
[2] = (§1) Inhibition of Hedgehog signaling pathway in mouse C3H10T1/2 cells assessed as reduction in oxysterol-induced Gli1 mRNA expression after 24 hrs by q-PCR analysis; assay type: cell-based; details: C3H 10T1/2, 24 h
Mus musculus [3] = species on record: Mus musculus; assay: as §1; assay type: cell-based
[4] = target: T1, Cyp24A1 mRNA (readout of VDR activation) (Mus musculus, UniProt P48281); assay: Activation of VDR in mouse C3H10T1/2 cells assessed as change in Cyp24A1 mRNA expression at 5 uM after 24 hrs by q-PCR analysis relative to control; assay type: ADME, cell-based; details: read-out: FC
T1 sequence (P48281 whole entry): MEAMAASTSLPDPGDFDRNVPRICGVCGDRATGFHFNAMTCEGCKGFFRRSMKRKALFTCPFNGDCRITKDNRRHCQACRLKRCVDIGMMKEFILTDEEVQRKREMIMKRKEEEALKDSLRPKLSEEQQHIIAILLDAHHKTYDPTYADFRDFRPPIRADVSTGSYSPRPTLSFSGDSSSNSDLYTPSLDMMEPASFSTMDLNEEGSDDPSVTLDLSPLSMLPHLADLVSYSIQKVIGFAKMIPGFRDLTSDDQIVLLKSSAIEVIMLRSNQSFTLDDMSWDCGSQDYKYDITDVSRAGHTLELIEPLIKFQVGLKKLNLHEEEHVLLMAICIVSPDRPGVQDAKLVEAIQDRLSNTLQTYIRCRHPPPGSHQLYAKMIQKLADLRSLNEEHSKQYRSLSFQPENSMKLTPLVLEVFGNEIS

[5] = Inhibition of Hedgehog signaling pathway in mouse ASZ001 cells assessed as reduction in oxysterol-induced Gli1 mRNA expression after 24 hrs by q-PCR analysis; assay type: cell-based; details: ASZ001, 24 h
[6] = target: T1, Cyp24A1 mRNA (readout of VDR activation); assay: Activation of VDR in mouse ASZ001 cells assessed as change in Cyp24A1 mRNA expression at 5 uM after 24 hrs by q-PCR analysis relative to control; assay type: ADME, cell-based; details: read-out: FC

IC50 [2] [µM] | fold induction at 24 h, 5 µM [4] | IC50 [5] [µM] | fold induction at 24 h, 5 µM [6] | SMILES | inhibition (Mus musculus [1]) [%] | inhibition (Mus musculus [3])
4.7 | 17 |  |  | CC(C)CCC[C@@H](C)[C@H]1CC[C@H]2[C@@H](O)C[C@H](CCO)C[C@]12C | 39 | Dose-dependent effect
2.7 | 7.2 | 1 | 2 | CC(C)CCC[C@@H](C)[C@H]1CC[C@H]2[C@@H](Nc3ccc(O)cc3)C[C@H](CCO)C[C@]12C | 1.1 | Dose-dependent effect
2 | 9 | 4.1 | 1.1 | CC(C)CCC[C@@H](C)[C@H]1CC[C@H]2[C@@H](OC(=O)c3cccc(O)c3)C[C@H](CCO)C[C@]12C | 8.7 | Dose-dependent effect

Further lines, the molecule ahead of its results:

SMILES | IC50 [2] [µM] | fold induction at 24 h, 5 µM [4] | IC50 [5] [µM] | fold induction at 24 h, 5 µM [6] | inhibition (Mus musculus [1]) [%] | inhibition (Mus musculus [3])
CC(C)CCC[C@@H](C)[C@H]1CC[C@H]2[C@@H](OC(=O)c3cccc(O)c3)C[C@H](c3ccccc3)C[C@]12C |  | 2.3 |  |  | 71 | 
C=C[C@H]1CC(=O)[C@@H]2CC[C@H]([C@H](C)CCCC(C)C)[C@@]2(C)C1 |  | 19 |  |  | 28 | 
CC(C)CCC[C@@H](C)[C@H]1CC[C@H]2[C@@H](OC(=O)c3cccc(O)c3)C[C@H](C3CCCCC3)C[C@]12C |  | 2.8 |  |  | 92 | 
CC[C@@H]1C[C@H](OC(=O)c2cccc(O)c2)[C@@H]2CC[C@H]([C@H](C)CCCC(C)C)[C@@]2(C)C1 | 0.92 | 3.6 | 5.2 | 1.3 | 2 | Dose-dependent effect
C#CCCC(=O)OCC[C@H]1C[C@H](OC(=O)c2cccc(O)c2)[C@@H]2CC[C@H]([C@H](C)CCCC(C)C)[C@@]2(C)C1 | 6.3 | 4.8 | 7.5 | 0.96 | 16 | Dose-dependent effect
CC(C)CCC[C@@H](C)[C@H]1CC[C@H]2[C@@H](OC(=O)c3cccc(O)c3)C[C@H](Cc3ccccc3)C[C@]12C |  | 3.6 |  |  | 85 | 
